Read-outs that look alike come from different tables or passages of the source.
Assays:
[1] = tested on: patients with advanced solid tumors; assay: Dose-limiting toxicities, MTD and RP2D determination (BLRM-guided dose escalation); format: in vivo, human
Description: This was a phase I, open-label, dose-escalation study of single-agent TAK-931. Dose escalation of TAK-931 was cohort based with an adaptive design using Bayesian logistic regression modeling (BLRM) with pharmacokinetic guidance. BLRM also guided MTD estimation from the second dose. Patients were enrolled in one of four dosing schedules (A, B, D, or E; Supplementary Fig. S1) to receive TAK-931. Two additional schedules were planned (C and F) but no patients were enrolled. Schedule A included an initial accelerated escalation phase. TAK-931 was administered once daily for 14 days in 21-day cycles starting at 30 mg, which doubled until a cycle 1 dose-limiting toxicity (DLT) was observed, when 2 patients experienced grade ≥2 treatment-related toxicity, or when maximum geometric mean plasma concentration (Cmax) for the cohort reached or exceeded 800 ng/mL [threshold for off-target adverse effects (hypotension) in animal toxicology studies]; then dose escalation transitioned to modified Fibonacci escalation steps. In schedule B (based on experience with schedule A), patients received TAK-931 once daily or twice daily for 7 days on, 7 days off in a 28-day cycle starting at 60 mg. In schedule D, patients received TAK-931 once daily starting at 20 mg in 21-day cycles; BLRM was not applied but further adjustments were dependent on observed safety, pharmacokinetics, and pharmacodynamics. In schedule E, patients received TAK-931 once daily for 2 days on, 5 days off starting at 100 mg in 21-day cycles. A safety expansion was permitted once MTD had been determined. Prophylactic growth factors were permitted in all schedules to manage severe and/or febrile neutropenia. TAK-931 treatment continued until unacceptable toxicity, disease progression, or patient withdrawal.
(§1) DLTs included: cycle 1 grade ≥3 hematologic and non-hematologic events or grade 2 non-hematologic events considered by the investigator to be TAK-931-related, grade 2 ejection fraction decrease, >2 weeks delay in initiating cycle 2 (1 week for schedules D and E), and >50% TAK-931 dose reduction in cycle 1 due to treatment-related adverse events (AEs; see Supplementary Materials and Methods for full DLT criteria). Toxicity was evaluated by NCI Common Terminology Criteria for Adverse Events (version 4.03). Tumor response was measured using the RECIST (version 1.1) ([16]). Serial blood samples for pharmacokinetic analysis were collected during cycle 1 on days 1 and 7 (schedule B), 1 and 8 (schedules A and D), or 1 and 9 (schedule E). Pharmacokinetic parameters were estimated from concentration–time profiles using noncompartmental methods with WinNonlin® Phoenix™ version 8.1 (Certara, Princeton, NJ). pMCM2 was detected semiquantitatively by IHC of histologic sections of formalin-fixed, paraffin-embedded skin and tumor biopsies using anti-pMCM2 (3378-1, Epitomics Inc.; ref. [15]). Quantitative image analysis determined pMCM2 levels as “histologic score nuclei (H-score).” Skin punch biopsies (2–4 mm) were obtained during screening or predose on cycle 1, day 1 and for patients in schedules A, B, and D, postdose on any drug dosing day after 3 consecutive dosing days in cycle 1. A postdose skin biopsy was obtained on day 9 in schedule E. Fresh tumor biopsy pairs were collected predose and postdose on any dosing day after the completion of 3 consecutive dosing days in cycle 1 from patients who received doses considered to have biological effect.
A dose-limiting toxicity (DLT) was defined as any of the following events that occurred during cycle 1 and were considered by the investigator to be related to TAK-931:
Grade 4 neutropenia (ANC <500 cells/mm^3) lasting >7 consecutive days; if myeloid growth factors were used, the event was considered a DLT irrespective of the duration
Grade ≥3 neutropenia (ANC <1000 cells/mm^3) with fever and/or infection, where fever was defined as a single temperature of >38.3°C or sustained temperature of ≥38°C for >1 hour […]

[2] = Plasma and urine pharmacokinetics, noncompartmental analysis; format: in vivo, human; settings: for half-life / Tmax: human, plasma; for half-life: po; for Tmax: oral
Method: as §1
(§2) The safety population included patients who received ≥1 dose of TAK-931. The pharmacodynamic-evaluable population comprised patients from the safety population with a baseline and ≥1 additional postbaseline biopsy sample that was suitable for pMCM2 analysis. The pharmacokinetic-evaluable population included patients with sufficient dosing and TAK-931 concentration–time data to estimate pharmacokinetic parameters. The response-evaluable population included patients in the safety population with measurable disease at baseline and ≥1 postbaseline response assessment.

advanced solid tumors = assay: Tumor response by RECIST version 1.1; format: in vivo, human; set-up: key to Best response, individual patient: PD: progressive disease; PR: partial response; SD: stable disease; settings: for Duration of SD / Duration PR maintained: 1 patient
Method: as §1, §2

[3] = animal toxicology studies; used as escalation limit; cited from earlier work

With `Cc1[nH]ncc1-c1cc2nc([C@@H]3CC4CCN3CC4)[nH]c(=O)c2s1` [TAK-931, simurosertib] as the molecule, how does the “Recommended phase II dose” value ([1]; once daily days 1–14 in 21-day cycles) read?
The value was 50 mg.

What about the “Patients with DLTs (grade 4 neutropenia)” value ([1]; schedule A) of the same molecule?
Its value is 2 patients.

And the “Patients with DLT of grade 4 neutropenia lasting >3 days” value ([1]; schedule A, 60 mg)?
Its value is 2 of 3.

What about the “Maximum tolerated dose (MTD)” value ([1]; schedule A: once daily days 1–14 of 21-day cycle) of the same molecule?
Its value is 50 mg.

What about the “Patients with DLT of grade 3 febrile neutropenia” value ([1]; schedule B) of the same molecule?
The value was 3 n.

What about the “Patients with DLT of grade 4 neutropenia” value ([1]; schedule B) of the same molecule?
Its value is 1 n.

And the “Patients with DLTs” value ([1]; schedule B)?
Its value is 4 patients.

What about the “Patients with DLT of grade 3 febrile neutropenia” value ([1]; schedule B, 80 mg) of the same molecule?
Its value is 2 of 9.

What about the “Patients with DLT of grade 4 neutropenia lasting >7 days” value ([1]; schedule B, 100 mg) of the same molecule?
Its value is “One of 6”.

What about the “Patients with DLT of grade 3 febrile neutropenia” value ([1]; schedule B, 120 mg) of the same molecule?
Its value is “one of six”.

What about the “Maximum tolerated dose (MTD)” value ([1]; schedule B: days 1–7 and 15–21 of 28-day cycle) of the same molecule?
Its value is 100 mg.

What about the “Patients with DLT of grade 4 neutropenia” value ([1]; schedule D, 40 mg) of the same molecule?
Its value is 1 patient.

What about the “Patients with DLT of grade 3 febrile neutropenia” value ([1]; schedule E, 150 mg) of the same molecule?
The value was “a second patient”.

What about the “Patients with DLT of grade 4 neutropenia” value ([1]; schedule E, 150 mg) of the same molecule?
The value was 1 patient.

And the “Accumulation following higher doses” value ([2]; 120 and 150 mg)?
The value was “minor accumulation”.

And the “Renal clearance (CLr) as share of total apparent clearance” value ([2]; estimated amount excreted in urine, n = 79)?
The value was “approximately 8%”.

What about the half-life ([2]; 50 mg, oral administration of 50 mg, read-out: Terminal half-life (converted)) of the same molecule?
Its half-life is about 5 h.

What about the half-life ([2]; oral administration, read-out: Estimated T1/2) of the same molecule?
The half-life was 5 to 6 h.

What about the half-life ([2]; oral administration, read-out: Mean half-life (T1/2)) of the same molecule?
Its half-life is 4.58 to 6.53 h.

And the Tmax ([2]; 50 mg dose, read-out: Tmax)?
The Tmax was about 2 h.

What about the Tmax ([2]; postdose, over the dose range of 20–50 mg, read-out: Median time to maximum plasma concentration (Tmax)) of the same molecule?
Its Tmax is 1 to 4 h.

And the “Systemic exposures between day 1 and days 7, 8, or 9” value ([2]; multiple dosing)?
Its value is “mostly unchanged”.

And the “Plasma exposure vs dose” value ([2]; single- and multiple-dose administration over 20–50 mg)?
The value was “approximately dose proportional”.

And the “Systemic exposure vs dose (dose-normalized AUC24)” value ([2]; single- and multiple-dose administration over the range 20–150 mg)?
The value was “approximately dose proportional”.

And the “Duration of SD” value (advanced solid tumors; cervical cancer, schedule A (50 mg))?
The value was 11.33 months.

What about the “Duration of SD” value (advanced solid tumors; cervical cancer, schedule D (40 mg)) of the same molecule?
Its value is 15.24 months.

And the “Duration PR maintained” value (advanced solid tumors; cervical squamous cell cancer, schedule A 60 mg)?
Its value is 2.2 months.

And the “Duration PR maintained” value (advanced solid tumors; duodenal squamous cell cancer, schedule A 30 mg)?
Its value is 2.1 months.

What about the “Duration PR maintained” value (advanced solid tumors; esophageal cancer, schedule B 100 mg) of the same molecule?
The value was 4.2 months.

What about the “Duration PR maintained” value (advanced solid tumors; esophageal squamous cell cancer, schedule A 50 mg) of the same molecule?
Its value is 2.7 months.

And the “Duration of SD” value (advanced solid tumors; thymic cancer, schedule A (50 mg))?
The value was 10.45 months.

And the “CR (complete response) as best response” value (advanced solid tumors; Schedule A n = 24)?
The value was 0 n (%) [95% CI].

What about the “CR (complete response) as best response” value (advanced solid tumors; Schedule B n = 23) of the same molecule?
The value was 0 n (%) [95% CI].

And the “CR (complete response) as best response” value (advanced solid tumors; Schedule D n = 17)?
The value was 0 n (%) [95% CI].

And the “ORR (overall response rate), investigator's assessment” value (advanced solid tumors; Schedule D n = 17)?
Its value is 0 n (%) [95% CI].

And the “PR (partial response) as best response” value (advanced solid tumors; Schedule D n = 17)?
Its value is 0 n (%) [95% CI].

What about the “CR (complete response) as best response” value (advanced solid tumors; Schedule E n = 11) of the same molecule?
The value was 0 n (%) [95% CI].

And the “ORR (overall response rate), investigator's assessment” value (advanced solid tumors; Schedule E n = 11)?
The value was 0 n (%) [95% CI].

And the “PR (partial response) as best response” value (advanced solid tumors; Schedule E n = 11)?
Its value is 0 n (%) [95% CI].

And the “Patients achieving a partial response” value (advanced solid tumors; overall)?
Its value is 5 patients.

What about the “Patients with best response of SD” value (advanced solid tumors; overall) of the same molecule?
The value was 28 patients.

And the “Share of patients with SD or PR having esophageal, thymic, or cervical cancer” value (advanced solid tumors; overall)?
Its value is 39%.

What about the Median progression-free survival (advanced solid tumors; overall, 95% confidence interval, 1.94–3.06) of the same molecule?
The Median progression-free survival was 2.2 months.

And the “Overall response rate (ORR)” value (advanced solid tumors; schedule A)?
The value was 13%.

And the “Best response, individual patient” value (advanced solid tumors; schedule A, 30 mg, cancer type Duodenal)?
Its value is “PR”.

And the “Best response, individual patient” value (advanced solid tumors; schedule A, 30 mg, cancer type Pancreatic)?
Its value is “SD”.

And the “Best response, individual patient” value (advanced solid tumors; schedule A, 30 mg, cancer type Rectal)?
The value was “PD”.

And the “Best response, individual patient” value (advanced solid tumors; schedule A, 40 mg, cancer type Breast)?
Its value is “PD”.

What about the “Best response, individual patient” value (advanced solid tumors; schedule A, 40 mg, cancer type Rectal) of the same molecule?
Its value is “PD”.

What about the “Best response, individual patient” value (advanced solid tumors; schedule A, 40 mg, cancer type Unknown) of the same molecule?
Its value is “SD”.

What about the “Best response, individual patient” value (advanced solid tumors; schedule A, 60 mg, cancer type Cervical) of the same molecule?
The value was “PR”.

What about the “Best response, individual patient” value (advanced solid tumors; schedule A, 60 mg, cancer type Ovarian) of the same molecule?
Its value is “SD”.

And the “Best response, individual patient” value (advanced solid tumors; schedule A, 60 mg, cancer type Pancreatic)?
Its value is “SD”.

And the “Overall response rate (ORR)” value (advanced solid tumors; schedule B)?
Its value is 9%.

And the “Cmax threshold for off-target adverse effects (hypotension)” value [3]?
The value was 800 ng/mL.

From PMC10035389, “Safety, Tolerability, and Pharmacokinetics of TAK-931, a Cell Division Cycle 7 Inhibitor, in Patients with Advanced Solid Tumors: A Phase I First-in-Human Study” (Cancer Research Communications, 2022)
